In patent US20080248094A1 (NATIONAL RESEARCH COUNCIL OF CANADA, priority 2001, published 2008):
Several values for one entry are separate records, joined by “and”; a condition that tells them apart may be missing. Equal values may be shown once.

Assays:
[1] = system: OVA; set-up: species or system C57BL/6 mice; conditions: mouse, in vivo
[2] = system: IL-12 secretion from dendritic cells; format: cell-based, C57BL/6 mice
[3] = system: bone marrow dendritic cells; format: cell-based, C57BL/6 mice

Question: For “OVA, no adjuvant: 15 μg ovalbumin (OVA) with no adjuvant”, which “anti OVA antibody titres” value [1] is on record?
Answer: The value was less than 42.

Question: Which results are given for lipopolysaccharide [LPS]?
Answer: IL-12 [2]: 187.9 ng/mL and 182.7 ng/mL; MTT (Absorbance) [3]: 0.564 Absorbance and 0.562 Absorbance
